Laboratory results as given in patent publication EP2147919A1, “Heterocyclic substituted amides, method for their manufacture and their use as herbicides” (Bayer CropScience Aktiengesellschaft, priority 2008, dated 2010).

Experiments:
[1] = test system: VERPE; assay: Herbicidal action pre-emergence (greenhouse pot test, visual rating); type: in vivo, Veronica persica; conditions: Vorauflauf, 1280 g/ha, visual rating after 3 weeks vs untreated controls
Description: (§1) Samen von mono- bzw. dikotylen Unkraut- bzw. Kulturpflanzen werden in Holzfasertöpfen in sandiger Lehmerde ausgelegt und mit Erde abgedeckt. Die in Form von benetzbaren Pulvern (WP) oder als Emulsionskonzentrate (EC) formulierten erfindungsgemäßen Verbindungen werden dann als wäßrige Suspension bzw. Emulsion mit einer Wasseraufwandmenge von umgerechnet 600 bis 800 l/ha unter Zusatz von 0,2% Netzmittel auf die Oberfläche der Abdeckerde appliziert.
(§2) Nach der Behandlung werden die Töpfe im Gewächshaus aufgestellt und unter guten Wachstumsbedingungen für die Testpflanzen gehalten. Die visuelle Bonitur der Schäden an den Versuchspflanzen erfolgt nach einer Versuchszeit von 3 Wochen im Vergleich zu unbehandelten Kontrollen (herbizide Wirkung in Prozent (%): 100% Wirkung = Pflanzen sind abgestorben, 0 % Wirkung = wie Kontrollpflanzen).

[2] = test system: LOLMU; assay: as above; type: in vivo, Lolium multiflorum; conditions: Vorauflauf, 1280 g/ha, visual rating after 3 weeks vs untreated controls
Description: as §1, §2

[3] = test system: Schadpflanzen; assay: Herbicidal action pre-emergence, summary over the weed spectrum; type: in vivo; conditions: Vorauflaufverfahren, Aufwandmenge von 1.28 kg und weniger Aktivsubstanz pro Hektar
Description: as §1, §2

[4] = test system: MATIN; assay: Herbicidal action pre-emergence (greenhouse pot test, visual rating); type: in vivo, Matricaria inodora; conditions: Vorauflauf, 1280 g/ha, visual rating after 3 weeks vs untreated controls
Description: as §1, §2

[5] = test system: STEME; assay: as above; type: in vivo, Stellaria media; conditions: Vorauflauf, 1280 g/ha, visual rating after 3 weeks vs untreated controls
Description: as §1, §2

[6] = test system: ABUTH; assay: as above; type: in vivo, Abutilon theophrasti; conditions: Vorauflauf, 1280 g/ha, visual rating after 3 weeks vs untreated controls
Description: as §1, §2

[7] = test system: VIOTR; assay: as above; type: in vivo, Viola tricolor; conditions: Vorauflauf, 1280 g/ha, visual rating after 3 weeks vs untreated controls
Description: as §1, §2

[8] = test system: SETVI; assay: as above; type: in vivo, Setaria viridis; conditions: Vorauflauf, 1280 g/ha, visual rating after 3 weeks vs untreated controls
Description: as §1, §2

[9] = test system: ALOMY; assay: as above; type: in vivo, Alopecurus myosuroides; conditions: Vorauflauf, 1280 g/ha, visual rating after 3 weeks vs untreated controls
Description: as §1, §2

[10] = test system: POLCO; assay: as above; type: in vivo, Polygonum convolvolus; conditions: Vorauflauf, 1280 g/ha, visual rating after 3 weeks vs untreated controls
Description: as §1, §2

[11] = test system: AMARE; assay: as above; type: in vivo, Amaranthus retroflexus; conditions: Vorauflauf, 1280 g/ha, visual rating after 3 weeks vs untreated controls
Description: as §1, §2

[12] = test system: ECHCG; assay: as above; type: in vivo, Echinochloa crus-galli; conditions: Vorauflauf, 1280 g/ha, visual rating after 3 weeks vs untreated controls
Description: as §1, §2

[13] = Log P; type: physicochemical
[14] = test system: VIOTR; assay: Herbicidal action post-emergence (greenhouse pot test, visual rating); type: in vivo, Viola tricolor; conditions: Nachauflauf, 1280 g/ha, visual rating after ca. 3 weeks vs untreated controls
Description: (§3) Samen von mono- bzw. dikotylen Unkraut- bzw. Kulturpflanzen werden in Holzfasertöpfen in sandigem Lehmboden ausgelegt, mit Erde abgedeckt und im Gewächshaus unter guten Wachstumsbedingungen angezogen. 2 bis 3 Wochen nach der Aussaat werden die Versuchspflanzen im Einblattstadium behandelt. Die in Form von benetzbaren Pulvern (WP) oder als Emulsionskonzentrate (EC) formulierten erfindungsgemäßen Verbindungen werden dann als wäßrige Suspension bzw. Emulsion mit einer Wasseraufwandmenge von umgerechnet 600 bis 800 l/ha unter Zusatz von 0,2% Netzmittel auf die grünen Pflanzenteile gesprüht. Nach ca. 3 Wochen Standzeit der Versuchspflanzen im Gewächshaus unter optimalen Wachstumsbedingungen wird die Wirkung der Präparate visuell im Vergleich zu unbehandelten Kontrollen bonitiert (herbizide Wirkung in Prozent (%): 100% Wirkung = Pflanzen sind abgestorben, 0 % Wirkung = wie Kontrollpflanzen).

[15] = test system: VERPE; assay: as above; type: in vivo, Veronica persica; conditions: Nachauflauf, 1280 g/ha, visual rating after ca. 3 weeks vs untreated controls
Description: as §3

[16] = test system: ABUTH; assay: as above; type: in vivo, Abutilon theophrasti; conditions: Nachauflauf, 1280 g/ha, visual rating after ca. 3 weeks vs untreated controls
Description: as §3

[17] = test system: AMARE; assay: as above; type: in vivo, Amaranthus retroflexus; conditions: Nachauflauf, 1280 g/ha, visual rating after ca. 3 weeks vs untreated controls
Description: as §3

[18] = test system: PHBPU; assay: as above; type: in vivo, Pharbitis purpurea; conditions: Nachauflauf, 1280 g/ha, visual rating after ca. 3 weeks vs untreated controls
Description: as §3

[19] = test system: STEME; assay: as above; type: in vivo, Stellaria media; conditions: Nachauflauf, 1280 g/ha, visual rating after ca. 3 weeks vs untreated controls
Description: as §3

[20] = test system: MATIN; assay: as above; type: in vivo, Matricaria inodora; conditions: Nachauflauf, 1280 g/ha, visual rating after ca. 3 weeks vs untreated controls
Description: as §3

Cc1cc(OC(C)C)c(C(=O)NC(c2ccc(Cl)cc2)c2ccon2)c(Cl)n1 (racemic) [Beispiel 152, 2-Chlor-N-[(4-chlorphenyl)(isoxazol-3-yl)methyl]-4-isopropoxy-6-methylnicotinamid]
herbizide Wirkung VERPE [1]: 100%
herbizide Wirkung LOLMU [2]: 90%
herbizide Wirkung gegen Schadpflanzen [3]: sehr gute herbizide Wirkung
herbizide Wirkung MATIN [4]: 100%
herbizide Wirkung STEME [5]: 90%
herbizide Wirkung ABUTH [6]: 100%
herbizide Wirkung VIOTR [7]: 100%
herbizide Wirkung SETVI [8]: 100%
herbizide Wirkung ALOMY [9]: 80%
herbizide Wirkung POLCO [10]: 100%
herbizide Wirkung AMARE [11]: 100%
herbizide Wirkung ECHCG [12]: 90%

COc1ccc(C(NC(=O)c2cnn(C)c2Cl)c2ccon2)c(F)c1 (racemic) [Beispiel 260, 5-Chlor-N-[(2-fluor-4-methoxyphenyl)(isoxazol-3-yl)methyl]-1-methyl-1 H-pyrazol-4-carboxamid]
logP [13]: 1.8

COc1cccc(C(NC(=O)c2nsc(Cl)c2Cl)c2ccon2)c1 (racemic) [Beispiel 306, 4,5-Dichlor-N-[(3-methoxyphenyl)(isoxazol-3-yl)methyl]isothiazol-3-carboxamid]
logP [13]: 3.44

COc1ccc(C(NC(=O)c2c(OC(C)C)cc(C)nc2Br)c2ccon2)c(F)c1 (stereo not drawn) [Beispiel 3, 2-Brom-N-[(2-fluor-4-methoxyphenyl)(isoxazol-3-yl)methyl]-4-isopropoxy-6-methylnicotinamid]
herbizide Wirkung gegen Schadpflanzen [3]: sehr gute herbizide Wirkung

CCCOc1cc(C)nc(Br)c1C(=O)NC(c1ccc(Cl)cc1)c1ccon1 (stereo not drawn) [Beispiel 35]
herbizide Wirkung gegen Schadpflanzen [3]: sehr gute herbizide Wirkung
logP [13]: 2.63

Cc1ncc(C(=O)NC(c2ccc(Cl)cc2)c2ccon2)c(C)c1Br (stereo not drawn) [Beispiel 131]
logP [13]: 2.63

COc1ccc(C(NC(=O)c2cnc(C)c(Br)c2C)c2ccon2)c(F)c1 (stereo not drawn) [Beispiel 132]
logP [13]: 2.28

COc1cccc(C(NC(=O)c2c(OC(C)C)cc(C)nc2Br)c2ccon2)c1 (stereo not drawn) [Beispiel 158]
logP [13]: 2.16

CCCOc1cc(C)nc(Br)c1C(=O)NC(c1ccon1)c1ccc(Cl)cc1Cl (stereo not drawn) [Beispiel 160]
herbizide Wirkung VERPE [1]: 100%
herbizide Wirkung MATIN [4]: 100%
herbizide Wirkung STEME [5]: 100%
herbizide Wirkung ABUTH [6]: 100%
herbizide Wirkung VIOTR [7]: 100%
herbizide Wirkung SETVI [8]: 90%
herbizide Wirkung POLCO [10]: 100%
herbizide Wirkung AMARE [11]: 100%

Cc1cc(Cl)c(C(=O)NC(c2ccc(F)c(F)c2)c2ccon2)c(OC(C)C)n1 (stereo not drawn) [Beispiel 164]
herbizide Wirkung VERPE [1]: 100%
herbizide Wirkung VIOTR [14]: 80%
herbizide Wirkung STEME [5]: 90%
herbizide Wirkung VIOTR [7]: 100%
herbizide Wirkung VERPE [15]: 80%
herbizide Wirkung POLCO [10]: 100%
herbizide Wirkung AMARE [11]: 100%
herbizide Wirkung ABUTH [16]: 90%
herbizide Wirkung AMARE [17]: 100%
herbizide Wirkung PHBPU [18]: 80%

COc1ccc(C(NC(=O)c2c(OC(C)C)cc(C)nc2Cl)c2ccon2)c(F)c1 (stereo not drawn) [Beispiel 187]
logP [13]: 2.18

COc1ccncc1C(=O)NC(c1ccc(Cl)cc1)c1ccon1 (stereo not drawn) [Beispiel 188]
logP [13]: 1.18

COc1ccc(C(NC(=O)c2cnccc2OC)c2ccon2)c(F)c1 (stereo not drawn) [Beispiel 189]
logP [13]: 1

COc1ccncc1C(=O)NC(c1ccc(F)c(F)c1)c1ccon1 (stereo not drawn) [Beispiel 190]
logP [13]: 1.07

O=C(NC(c1ccon1)c1ccc(Cl)cc1Cl)c1ccc(Cl)nc1 (stereo not drawn) [Beispiel 201]
herbizide Wirkung VERPE [1]: 100%
herbizide Wirkung STEME [5]: 100%
herbizide Wirkung VIOTR [7]: 100%

Cc1ccc(C(=O)NC(c2ccc(Cl)cc2)c2ccon2)cn1 (stereo not drawn) [Beispiel 209]
herbizide Wirkung VIOTR [14]: 80%
herbizide Wirkung STEME [19]: 100%
herbizide Wirkung ABUTH [16]: 80%

COc1ccc(C(NC(=O)c2ccc(C)nc2)c2ccon2)c(F)c1 (stereo not drawn) [Beispiel 212]
herbizide Wirkung STEME [19]: 100%
herbizide Wirkung VERPE [15]: 80%
herbizide Wirkung ABUTH [16]: 80%
herbizide Wirkung AMARE [17]: 80%

CCCOc1cc(C)nc(Cl)c1C(=O)NC(c1cnc(Cl)c(Cl)c1)c1ccon1 (stereo not drawn) [Beispiel 221]
logP [13]: 2.45

Cc1cc(OC(C)C)c(C(=O)NC(c2cnc(Cl)c(Cl)c2)c2ccon2)c(Cl)n1 (stereo not drawn) [Beispiel 222]
logP [13]: 2.37

CCCOc1cc(C)nc(Br)c1C(=O)NC(c1cnc(Cl)c(Cl)c1)c1ccon1 (stereo not drawn) [Beispiel 223]
logP [13]: 2.6

Cc1cc(OC(C)C)c(C(=O)NC(c2cnc(Cl)c(Cl)c2)c2ccon2)c(Br)n1 (stereo not drawn) [Beispiel 224]
logP [13]: 2.51

COc1ccc(C(NC(=O)c2c(C)nn(C)c2Cl)c2ccon2)c(F)c1 (stereo not drawn) [Beispiel 261]
herbizide Wirkung VERPE [1]: 100%
herbizide Wirkung MATIN [20]: 100%
herbizide Wirkung VIOTR [14]: 100%
herbizide Wirkung MATIN [4]: 100%
herbizide Wirkung STEME [5]: 100%
herbizide Wirkung STEME [19]: 100%
herbizide Wirkung SETVI [8]: 90%
herbizide Wirkung VERPE [15]: 100%
herbizide Wirkung AMARE [11]: 100%
herbizide Wirkung ABUTH [16]: 80%
herbizide Wirkung AMARE [17]: 90%
herbizide Wirkung PHBPU [18]: 80%

Cn1nc(C(F)(F)F)c(C(=O)NC(c2ccc(Cl)cc2)c2ccon2)c1Cl (stereo not drawn) [Beispiel 262]
herbizide Wirkung VERPE [1]: 100%
herbizide Wirkung MATIN [4]: 90%
herbizide Wirkung STEME [5]: 100%
herbizide Wirkung VIOTR [7]: 100%
herbizide Wirkung AMARE [11]: 100%

Cc1nn(C)cc1C(=O)NC(c1ccc(Cl)cc1)c1ccon1 (stereo not drawn) [Beispiel 265]
herbizide Wirkung VERPE [1]: 100%
herbizide Wirkung MATIN [20]: 80%
herbizide Wirkung VIOTR [14]: 100%
herbizide Wirkung MATIN [4]: 100%
herbizide Wirkung STEME [5]: 100%
herbizide Wirkung ABUTH [6]: 90%
herbizide Wirkung STEME [19]: 100%
herbizide Wirkung VIOTR [7]: 100%
herbizide Wirkung VERPE [15]: 100%
herbizide Wirkung AMARE [11]: 100%
herbizide Wirkung ABUTH [16]: 100%
herbizide Wirkung AMARE [17]: 100%

COc1ccc(C(NC(=O)c2cn(C)nc2C)c2ccon2)c(F)c1 (stereo not drawn) [Beispiel 266]
herbizide Wirkung VIOTR [14]: 80%
herbizide Wirkung STEME [19]: 100%
herbizide Wirkung VERPE [15]: 90%

O=C(NC(c1ccc(Cl)cc1)c1ccon1)c1ncn(Cc2ccccc2)c1[N+](=O)[O-] (stereo not drawn) [Beispiel 289]
logP [13]: 2.63

COc1c(C(=O)NC(c2ccc(Cl)cc2)c2ccon2)csc1Br (stereo not drawn) [Beispiel 290]
logP [13]: 3.64

Cc1cc(C(=O)NC(c2ccc(Cl)cc2)c2ccon2)cs1 (stereo not drawn) [Beispiel 295]
herbizide Wirkung MATIN [20]: 80%
herbizide Wirkung VIOTR [14]: 90%
herbizide Wirkung STEME [19]: 100%
herbizide Wirkung ABUTH [16]: 80%

COc1ccc(C(NC(=S)c2cnn(C)c2Cl)c2ccon2)c(F)c1 (stereo not drawn) [Beispiel 312, 5-Chlor-N-[(2-fluor-4-methoxyphenyl)(isoxazol-3-yl)methyl]-1-methyl-1 H-pyrazol-4-carbothioamid]
logP [13]: 1.76

COc1c(C(=S)NC(c2ccc(Cl)cc2)c2ccon2)csc1Br (stereo not drawn) [Beispiel 313, 5-Brom-N-[(4-chlorphenyl)(isoxazol-3-yl)methyl]-4-methoxythiophen-3-carbothioamid]
logP [13]: 4.51
